The target in assay [1] is T1, rGLUT5 (Rattus norvegicus, UniProt P43427).
T1 construct: gene Slc2a5
T1 sequence (P43427 1-502): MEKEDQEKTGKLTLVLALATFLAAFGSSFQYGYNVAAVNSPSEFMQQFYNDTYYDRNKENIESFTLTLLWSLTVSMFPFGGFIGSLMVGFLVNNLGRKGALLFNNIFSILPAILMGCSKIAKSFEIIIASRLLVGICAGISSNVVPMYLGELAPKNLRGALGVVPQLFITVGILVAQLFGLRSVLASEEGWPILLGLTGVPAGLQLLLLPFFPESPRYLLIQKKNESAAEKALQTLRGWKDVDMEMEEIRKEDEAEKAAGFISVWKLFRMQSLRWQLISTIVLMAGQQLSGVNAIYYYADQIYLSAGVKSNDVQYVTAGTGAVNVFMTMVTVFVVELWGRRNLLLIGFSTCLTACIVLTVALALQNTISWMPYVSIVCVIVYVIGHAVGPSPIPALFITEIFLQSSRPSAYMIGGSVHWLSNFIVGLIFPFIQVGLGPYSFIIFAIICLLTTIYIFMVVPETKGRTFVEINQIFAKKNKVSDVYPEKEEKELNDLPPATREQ
Kind of assay: competitive […]-D-fructose uptake in proteoliposomes, […] compound, […] reduction. The assay is classed as biochemical.

Assay [2] has as its target T1, rGLUT5. The assay is described as follows: inhibition of […]-D-fructose uptake by purified rGLUT5 in brain-fraction-seven proteoliposomes. The assay is classed as biochemical.

Consider `Cc1ccc(NC(=O)Oc2ccccc2)cc1` [C2, phenyl-n-(p-tolyl)-carbamate], for which the “% reduction” value at rGLUT5 [1] was 20 % reduction. As a reminder, the IC50 is the concentration that gives 50% inhibition. A high value points to lower potency. Regarding `Cc1ccc(NC(=O)Oc2ccc(C)cc2)cc1` [H4, 4-methylphenyl-N-(4-methylphenyl)-carbamate], 500 µM corresponded to half-maximal inhibition on rGLUT5 [2] (IC50).
